Reference: patent US20140135327A1, “N- (2 -AMINOPHENYL) BENZAMIDE DERIVATIVES AS HISTONE DEACETYLASE INHIBITORS” (CANCER RESEARCH TECHNOLOGY LIMITED, priority 2011, published 2014)

Assays:
[1] = tested on: CYP26 RNA expression in HL60 cells; experiment: CYP26 RNA expression in HL60 cells (Q-RT-PCR); type: cell-based
Method: (§1) HL60 or NB4 cells were cultured at 1.0×10^6 cells/ml in complete growth medium. Cells (10 ml) were then treated with ATRA, the compound of Example 7(MI-192), or left untreated as controls. After 1 day, the expression of CYP26 and BACT RNAs were determined using quantitative PCR (Taqman). The expression of CYP26 RNA was normalised to BACT, and expression in control cells was set to 1.0.

HL60 cells [2] = experiment: MTS assay, growth inhibition in HL60 cells; type: cell-based; settings: after 3 days (FIG. 2(i) legend: 4 day), absorbance 490 nm relative to untreated cells
Method: (§2) HL60 or NB4 cells were diluted in complete growth medium and plated at a density of 5000 cells per 0.1 ml in wells of a 96 well plate. Cells were then treated with various concentrations of the compound of Example 7 (MI-192) or were left untreated as a control in a total volume of 0.2 ml of complete growth medium. After 3 days, relative cell numbers were determined using the MTS assay, as described by the manufacturer (Promega, Southampton, UK). The results shown in FIG. 2(i) are absorbance (490 nm) relative to control cells (untreated cells 100%).

[3] = tested on: CYP26 RNA expression in NB4 cells; experiment: CYP26 RNA expression in NB4 cells (Q-RT-PCR); type: cell-based; settings: 1 day, normalised to BACT, control set to 1.0
Method: as §1

NB4 cells = experiment: MTS assay, growth inhibition in NB4 cells; type: cell-based; settings: after 3 days (FIG. 2(i) legend: 4 day), absorbance 490 nm relative to untreated cells
Method: as §2

HL60 cells [4] = experiment: CD11b flow cytometry, differentiation in HL60 cells; type: cell-based; settings: 3 days
Method: HL60 cells were cultured at 0.5×10^6 cells/ml in complete growth medium. Cells (2 ml) were then treated with ATRA (sourced commercially), the compound of Example 7 (MI-192), or left untreated as controls. After 3 days, CD11b expression was determined by flow cytometry using a PE-conjugated anti-CD11b monoclonal antibody.

Compound: C=C1CN(Cc2ccc(C(=O)Nc3ccccc3N)cc2)C(=O)c2ccccc21 [Example 7, N-(2-Aminophenyl)-4-[(4-methylene-1-oxo-3,4-dihydroisoquino-2(1H)-yl)methyl]benzamide]
- transcription modulating activity compared with ATRA [1]: exceeded that of ATRA
- CYP26 RNA expression ([1]; 1 day, Q-RT-PCR, normalised to BACT, control set to 1.0): induces expression of CYP26
- growth inhibition (MTS assay) (HL60 cells [2]): promotes growth inhibition
- CYP26 RNA expression [3]: induces expression of CYP26
- growth inhibition (MTS assay) (NB4 cells): promotes growth inhibition
- differentiation (CD11b expression, flow cytometry) (HL60 cells [4]): promotes growth inhibition and differentiation

Compound: C=C1CN(Cc2ccc(C(=O)Nc3ccccc3N)cc2)C(CC(=O)O)c2ccccc21 (stereo not shown) [Example 9, [2-(4-{[(2-Aminophenyl)amino]carbonyl}benzyl)-4-methylene-1,2,3,4-tetra hydroisoquinolin-1-yl]acetic acid]
- melting point: > 230 °C
